These results are taken from ChEMBL document CHEMBL3045028, “Synthesis, AntiBacteriol, and Antifungal Activities of Some New Benzimidazoles” (1992).

Common to all, as to format: functional
For one test, the system named is Pseudomonas viridiflava. Nature of the test: In vitro antibacterial activity against Pseudomonas viridiflava 8 assessed as inhibition at 0.1 %.
The subject of test [1] is Pseudomonas savastanoi pv. glycinea. As to the kind of experiment: In vitro antibacterial activity against Pseudomonas syringae pv. glycinea S1 assessed as inhibition at 0.1 %.
Test [2] deals with Pseudomonas savastanoi pv. phaseolicola. As to the kind of experiment: In vitro antibacterial activity against Pseudomonas syringae pv. phaseolicola E81 assessed as inhibition at 0.1 %.
The test system of test [3] is Xanthomonas campestris pv. campestris. Nature of the test: In vitro antibacterial activity against Xanthomonas campestris pv. campestris KF2 assessed as inhibition at 0.1 %.
The test system of test [4] is Xanthomonas phaseoli pv. phaseoli. Nature of the test: In vitro antibacterial activity against Xanthomonas campestris pv. phaseoli assessed as inhibition at 0.1 %.
In test [5] the test system is Xanthomonas euvesicatoria. As to the kind of experiment: In vitro antibacterial activity against Xanthomonas euvesicatoria P-2092 assessed as inhibition at 0.1 %.
For the next test, the system named is Agrobacterium sp. Nature of the test: In vitro antibacterial activity against Agrobacterium radiobacter pv. tumefaciens assessed as inhibition at 0.1 %.
Another test deals with Botrytis cinerea. As to the kind of experiment: In vitro antifungal activity against Botryotinia fuckeliana assessed as inhibition at 0.1 %.

Activity calls are given as the source filed them. The calls are words filed in the database; no cut-off is given here.

As for `Cc1cc2c(cc1C)[n+](N)cn2Cc1ccc(Cl)cc1.O=S(=O)([O-])c1ccccc1`, the “diameter of the inhibition zone (DIZ)” value (in the test on Pseudomonas viridiflava; in test [3]; in test [4]; in test [5]) was 2 cm in each case. Besides, the inhibition entry in test [1] and in test [2] was “inactive” in each case.

Take `Cc1ccc(Cn2c(/N=C/c3ccc([N+](=O)[O-])o3)nc3cc(C)c(C)cc32)cc1`: the “diameter of the inhibition zone (DIZ)” value (with Agrobacterium sp.; in test [4]; in test [5]) was 3 cm throughout.

As to `Cc1ccccc1Cn1c(/N=C/c2ccc([N+](=O)[O-])o2)nc2ccccc21`, the “diameter of the inhibition zone (DIZ)” value (with Agrobacterium sp.; in test [3]; in test [5]) was 3 cm throughout.

As for `Nc1nc2ccccc2n1Cc1ccccc1Cl`, the inhibition result (with Botrytis cinerea; in test [1]; in test [2]) was “inactive” each time. Moreover, the “diameter of the inhibition zone (DIZ)” value with Pseudomonas viridiflava is on record as 2 cm; in test [3] it was 3 cm; in test [4] it was 1 cm; in test [5], 2 cm.

As to `Cc1cc2nc(N)n(/N=C/c3ccc([N+](=O)[O-])o3)c2cc1C`, the “diameter of the inhibition zone (DIZ)” value (in the test with Agrobacterium sp.; in test [3]; in test [5]) was 3 cm throughout.

Regarding `O=[N+]([O-])c1ccc(/C=N/c2nc3ccccc3n2Cc2ccc(Cl)cc2)o1`, in the test on Botrytis cinerea, the inhibition result is “inactive”. Also, the “diameter of the inhibition zone (DIZ)” value in the test with Agrobacterium sp. was found to be 3 cm.

With `Nc1nc2ccccc2n1Cc1cccc(F)c1`, the “diameter of the inhibition zone (DIZ)” value (in the test with Agrobacterium sp.; in test [3]; in test [5]) was 3 cm throughout.

Consider `Cc1cc2nc(N)n(Cc3ccccc3Cl)c2cc1C`, for which the “diameter of the inhibition zone (DIZ)” value in the test on Agrobacterium sp. was found to be 3 cm; in test [3] it was 2 cm; in test [5] it was 3 cm.

As to `COc1cccc(Cn2cnc3cc(C)c(C)cc32)c1`, the “diameter of the inhibition zone (DIZ)” value was 3 cm with Agrobacterium sp., 2 cm in test [3] and 3 cm in test [5].

As to `Cc1cc2nc(/N=C/c3ccc([N+](=O)[O-])o3)n(Cc3cccc(F)c3)c2cc1C`, the “diameter of the inhibition zone (DIZ)” value (in the test on Agrobacterium sp.; in test [4]; in test [5]) was 3 cm in each case.

`Nc1nc2ccccc2n1Cc1ccc(Cl)cc1`: the “diameter of the inhibition zone (DIZ)” value (with Botrytis cinerea; with Pseudomonas viridiflava; in test [1]; in test [2]; in test [3]) was 1 cm throughout. The inhibition result in test [4] and in test [5] was “inactive” throughout.

Take `Cc1ccc(Cn2cnc3cc(C)c(C)cc32)cc1`: the “diameter of the inhibition zone (DIZ)” value in the test with Botrytis cinerea worked out at 1 cm; in the test with Pseudomonas viridiflava, 1 cm; in test [1], 1 cm; in test [2] it was 1 cm; in test [3], 2 cm. The inhibition result in test [4] and in test [5] was “inactive” each time.

Consider `Cc1ccc(Cn2c(N)nc3cc(C)c(C)cc32)cc1`, for which the “diameter of the inhibition zone (DIZ)” value in the test with Agrobacterium sp. is listed as 3 cm; in test [3], 2 cm; in test [5], 2 cm.

For the molecule `CCn1c(N)nc2ccccc21`, the “diameter of the inhibition zone (DIZ)” value in the test on Botrytis cinerea was 3 cm; with Agrobacterium sp., 3 cm; in test [3], 3 cm; in test [5] it was 1 cm.

For `O=[N+]([O-])c1ccc(/C=N/c2nc3ccccc3n2Cc2cccc(F)c2)o1`, the “diameter of the inhibition zone (DIZ)” value (in the test with Agrobacterium sp.; in test [3]; in test [5]) was 3 cm each time.

For `Cc1cc2nc(N)n(Cc3cccc(F)c3)c2cc1C`, the “diameter of the inhibition zone (DIZ)” value (in the test on Agrobacterium sp.; in test [3]; in test [5]) was 3 cm in each case.

For `Cc1cc2nc(/N=C/c3ccc([N+](=O)[O-])o3)n(Cc3cccc(Cl)c3)c2cc1C`, the inhibition result in the test with Botrytis cinerea is “inactive”. For the same molecule, the “diameter of the inhibition zone (DIZ)” value in the test with Agrobacterium sp. worked out at 3 cm.

`CCCCn1c(/N=C/c2ccc([N+](=O)[O-])o2)nc2cc(C)c(C)cc21`: the “diameter of the inhibition zone (DIZ)” value in the test on Botrytis cinerea turned out to be 3 cm.

With `Cc1cc2nc(/N=C/c3ccc([N+](=O)[O-])o3)[nH]c2cc1C`, the “diameter of the inhibition zone (DIZ)” value (with Agrobacterium sp.; in test [3]; in test [5]) was 3 cm in each case.

With `O=[N+]([O-])c1ccc(/C=N/c2nc3ccccc3[nH]2)o1`, the “diameter of the inhibition zone (DIZ)” value is listed as 3 cm in the test on Botrytis cinerea; 2 cm in the test on Pseudomonas viridiflava; 3 cm in the test with Agrobacterium sp.; 2 cm in test [1]; 2 cm in test [2]; 2 cm in test [3]. The entries for the “diameter of the inhibition zone (DIZ)” value in test [4] and in test [5] were 3 cm and 1 cm, respectively.

As to `Cc1ccccc1Cn1c(N)nc2ccccc21`, the “diameter of the inhibition zone (DIZ)” value (in the test with Agrobacterium sp.; in test [3]; in test [5]) was 3 cm throughout.

Turning to `CCn1cnc2cc(C)c(C)cc21`, the “diameter of the inhibition zone (DIZ)” value (in the test on Agrobacterium sp.; in test [3]; in test [5]) was 3 cm each time.

Take `Cc1cc2ncn(C(C)(C)C)c2cc1C`: the “diameter of the inhibition zone (DIZ)” value (with Agrobacterium sp.; in test [3]; in test [5]) was 3 cm throughout.

For `Cc1cc2ncn(Cc3ccccc3C)c2cc1C`, the “diameter of the inhibition zone (DIZ)” value in the test on Agrobacterium sp. was 3 cm; in test [3], 2 cm; in test [5], 3 cm.

For `Cc1cccc(Cn2cnc3cc(C)c(C)cc32)c1`, the “diameter of the inhibition zone (DIZ)” value in the test on Agrobacterium sp. is 3 cm; in test [3], 2 cm; in test [5] it was 3 cm.

As to `Cc1cc2ncn(Cc3cccc(Cl)c3)c2cc1C`, the “diameter of the inhibition zone (DIZ)” value was determined as 1 cm in the test on Botrytis cinerea; 2 cm in the test with Pseudomonas viridiflava; 2 cm in test [1]; 1 cm in test [3]; 2 cm in test [5]. Moreover, the inhibition result in test [2] and in test [4] was “inactive” throughout.

Consider `CCn1c(N)nc2cc(C)c(C)cc21`, for which the “diameter of the inhibition zone (DIZ)” value in the test on Botrytis cinerea is listed as 3 cm; with Agrobacterium sp., 2 cm; in test [3], 3 cm; in test [5], 3 cm.

With `Cc1cc2nc(N)n(Cc3ccc(Cl)cc3)c2cc1C`, the “diameter of the inhibition zone (DIZ)” value is reported as 1 cm in the test with Pseudomonas viridiflava; 2 cm in test [1]; 2 cm in test [2]; 2 cm in test [3]; 1 cm in test [4]; 1 cm in test [5].

Turning to `CC(C)(C)n1c(N)nc2ccccc21`, the “diameter of the inhibition zone (DIZ)” value in the test with Botrytis cinerea is listed as 3 cm.

Regarding `Nc1nc2ccccc2n1/N=C/c1ccc([N+](=O)[O-])o1`, the “diameter of the inhibition zone (DIZ)” value with Pseudomonas viridiflava turned out to be 2 cm; in test [1] it was 2 cm; in test [2], 2 cm; in test [3], 2 cm; in test [4], 3 cm; in test [5] it was 1 cm.

As for `Cc1cc2nc(N)n(Cc3cccc(Cl)c3)c2cc1C`, the “diameter of the inhibition zone (DIZ)” value in the test on Botrytis cinerea was determined as 3 cm; in the test on Pseudomonas viridiflava it was 2 cm; with Agrobacterium sp., 2 cm; in test [1], 2 cm; in test [2] it was 2 cm; in test [3], 3 cm. For the same molecule, the “diameter of the inhibition zone (DIZ)” value in test [4] and in test [5] was 3 cm in each case.

Regarding `Cc1ccc(Cn2c(N)nc3ccccc32)cc1`, the “diameter of the inhibition zone (DIZ)” value (with Agrobacterium sp.; in test [3]; in test [5]) was 3 cm in each case.

On to `Cc1cccc(Cn2c(/N=C/c3ccc([N+](=O)[O-])o3)nc3ccccc32)c1`, for which the results for the “diameter of the inhibition zone (DIZ)” value (in the test on Agrobacterium sp.; in test [3]; in test [5]) were 3 cm, 3 cm and 2 cm, respectively.

Take `Cc1cc2nc(/N=C/c3ccc([N+](=O)[O-])o3)n(Cc3ccccc3Cl)c2cc1C`: the “diameter of the inhibition zone (DIZ)” value (in the test on Agrobacterium sp.; in test [4]; in test [5]) was 3 cm throughout.

With `CCCCn1cnc2cc(C)c(C)cc21`, the “diameter of the inhibition zone (DIZ)” value with Botrytis cinerea turned out to be 3 cm; in the test with Agrobacterium sp., 3 cm; in test [3] it was 2 cm; in test [5], 2 cm.

`Cc1cccc(OCn2c(/N=C/c3ccc([N+](=O)[O-])o3)nc3ccccc32)c1`: the “diameter of the inhibition zone (DIZ)” value (in the test with Agrobacterium sp.; in test [3]; in test [5]) was 3 cm each time.
